Data set [1] has as its system Human immunodeficiency virus 1. The data set can be described thus: Antiviral activity against X4 tropic HIV1 NL4-3 in MT4 cells assessed as protection from virus-induced cytopathogenicity at 3.13 uM after 5 days by MTT assay. It is filed as functional, organism-based.
The nature of data set [2]: Cytotoxicity against human MT4 cells after 5 days by MTT assay. It is filed as cell-based.
For data set [3], the system named is Human immunodeficiency virus 1. The data set can be described thus: Antiviral activity against X4 tropic HIV1 NL4-3 in MT4 cells assessed as protection from virus-induced cytopathogenicity after 5 days by MTT assay. Type of data set: functional, organism-based. Conditions: Human immunodeficiency virus 1, NL4-3, MT4, 120 h.
Data set [4] relates to Human immunodeficiency virus 1. The data set can be described thus: Antiviral activity against R5 tropic HIV1 NL(AD8) in PM1/CCR5 cells assessed as protection from virus-induced cytopathogenicity at 6.25 uM after 5 days by MTT assay. It is filed as functional. Conditions: Human immunodeficiency virus 1, NL(AD8), PM1/CCR5, 120 h.
Data set [5] concerns Human immunodeficiency virus 1. Put plainly: Antiviral activity against R5 tropic HIV1 JR-CSF in PM1/CCR5 cells assessed as protection from virus-induced cytopathogenicity measuring capsid p24 level at 50 uM after 5 days by ELISA. It is filed as functional. Conditions: Human immunodeficiency virus 1, JRCSF ISOLATE, PM1/CCR5, 120 h.
For data set [6], the system named is Human immunodeficiency virus 1. Put plainly: Antiviral activity against R5 tropic HIV1 NL(AD8) in PM1/CCR5 cells assessed as protection from virus-induced cytopathogenicity after 5 days by MTT assay. Conditions: Human immunodeficiency virus 1, NL(AD8), PM1/CCR5, 120 h. It is filed as functional, organism-based.
Data set [7] has as its system Human immunodeficiency virus 1. Put plainly: Antiviral activity against R5 tropic HIV1 JR-CSF in PM1/CCR5 cells assessed as protection from virus-induced cytopathogenicity measuring capsid p24 level after 5 days by ELISA. Conditions: Human immunodeficiency virus 1, JRCSF ISOLATE, PM1/CCR5, 120 h. It is filed as functional, cell-based.
The nature of data set [8]: Aqueous solubility of the compound. It is filed as physicochemical. Conditions: buffer.

Active and inactive are the calls of the source. No cut-off for these calls is given here. Where a SMILES comes first, the peptide text is derived from it. The star is where a group is joined. Cam = NC(=O)C* A value given as a limit tells only on which side of the number the result lay.

Turning to `CC[C@H](C)[C@H](NC(=O)[C@H](Cc1cnc[nH]1)NC(=O)[C@H](CCCCN)NC(=O)[C@H](CC(C)C)NC(C)=O)C(=O)N[C@H](C(=O)N[C@@H](Cc1c[nH]c2ccccc12)C(=O)N[C@@H](C)C(=O)N[C@@H](CO)C(=O)N[C@@H](CCCNC(=N)N)C(=O)N[C@@H](CCC(=O)O)C(=O)N[C@@H](CC(C)C)C(=O)N[C@@H](CCC(=O)O)C(=O)N[C@@H](CCCNC(=N)N)C(=O)N[C@@H](Cc1ccccc1)C(=O)N[C@@H](C)C(=O)NCC(=O)N[C@@H](CSCC(=O)N[C@@H](CCCNC(=N)N)C(=O)N[C@@H](CCCNC(=N)N)C(=O)N[C@@H](CCCNC(=N)N)C(=O)N[C@@H](CCCNC(=N)N)C(=O)N[C@@H](CCCNC(=N)N)C(=O)N[C@@H](CCCNC(=N)N)C(=O)N[C@@H](CCCNC(=N)N)C(=O)N[C@@H](CCCNC(=N)N)C(N)=O)C(N)=O)C(C)C`, the inhibition entry in data set [1] was “inactive”. The compound also showed a CC50 at 120 h in data set [2] of 3.7 µM.

As for `CC[C@H](C)[C@H](NC(=O)[C@H](CCC(N)=O)NC(=O)[C@H](CCCNC(=N)N)NC(=O)[C@H](CO)NC(=O)CNC(=O)[C@H](CCC(=O)O)NC(=O)[C@H](CO)NC(=O)[C@@H](NC(=O)[C@H](CCC(=O)O)NC(=O)[C@H](CC(C)C)NC(C)=O)[C@@H](C)O)C(=O)N[C@@H](CC(C)C)C(=O)NCC(=O)N[C@@H](CCC(N)=O)C(=O)N[C@@H](CC(C)C)C(=O)N[C@@H](CCC(N)=O)C(=O)NCC(=O)N[C@@H](CSCC(N)=O)C(N)=O` (Ac-LETSEGSRQILGQLQGC(Cam)-NH2), in data set [3], the EC50 was 37 µM. The inhibition at 6.25 µM in data set [4] was 24%. Moreover, the inhibition at 50 µM in data set [5] turned out to be 25%. In data set [2], the CC50 at 120 h is greater than 50 µM.

On to `CC[C@H](C)[C@H](NC(=O)[C@H](CCCNC(=N)N)NC(=O)[C@H](CCC(N)=O)NC(=O)[C@H](Cc1cnc[nH]1)NC(=O)[C@@H](NC(=O)[C@H](CO)NC(=O)[C@H](Cc1ccc(O)cc1)NC(=O)[C@H](CC(C)C)NC(=O)[C@@H](NC(=O)[C@H](C)NC(=O)[C@@H](NC(=O)[C@@H](NC(C)=O)[C@@H](C)O)[C@@H](C)CC)C(C)C)C(C)C)C(=O)N[C@@H](CC(=O)O)C(=O)N[C@H](C(=O)N[C@@H](CCCCN)C(=O)NCC(=O)N[C@@H](CSCC(N)=O)C(N)=O)C(C)C` (Ac-TIAVLYSVHQRIDVKGC(Cam)-NH2), for which the EC50 in data set [3] was found to be 29 µM; in data set [6] it was 13 µM; in data set [7] it was 8.1 µM. The same compound had a half-maximal cytotoxic concentration (CC50) at 120 h in data set [2] greater than 50 µM. In addition, in data set [8], the solubility entry was “Insoluble”.

As for `CC[C@H](C)[C@H](NC(=O)[C@@H](NC(=O)[C@H](CC(N)=O)NC(=O)[C@H](Cc1ccc(O)cc1)NC(=O)[C@H](CC(C)C)NC(=O)[C@H](CO)NC(=O)[C@H](CCCNC(=N)N)NC(=O)[C@H](CC(C)C)NC(=O)[C@H](CCC(=O)O)NC(=O)[C@H](CCC(=O)O)NC(=O)[C@H](CO)NC(=O)CNC(C)=O)[C@@H](C)O)C(=O)N[C@@H](C)C(=O)N[C@H](C(=O)N[C@@H](CC(C)C)C(=O)NCC(=O)N[C@@H](CSCC(N)=O)C(N)=O)C(C)C`, the half-maximal effective concentration (EC50) in data set [3] is greater than 50 µM. Further, the CC50 at 120 h in data set [2] is greater than 50 µM. Further, the solubility entry in data set [8] is reported as “Insoluble”.
